Assay results: patent US11109593B2, “Isoxazolin-5-one derivative and herbicide containing same as active ingredient” (HOKKO CHEMICAL INDUSTRY CO., LTD., priority 2017, dated 2021)

Tested on: Echinochloa crus-galli
Assay: Test Example 1: herbicidal effect test by treatment of rice paddy soil (immediately after seeding)
Format: in vivo
Details: 120 g/10a active ingredient, dry weight vs untreated area, 14 days after treatment
Outline: (§1)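 Pre-emergence paddy water application, 120 g a.i./10 ares, applied immediately post-seeding into ~3 cm flood; glasshouse; duplicate pots; dry weight at 14 d → % inhibition = (1 − treated/untreated) × 100.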

| SMILES | Herbicidal rate (%) Echinochloa crus-galli |
| --- | --- |
| CCCC(C)n1oc(=O)c(Cc2ccccc2N(S(=O)(=O)C(F)(F)F)S(=O)(=O)C(F)(F)F)c1C (stereo not drawn) [Compound 1-970] | 100% |
| Cc1c(Cc2ccccc2N(S(=O)(=O)C(F)(F)F)S(=O)(=O)C(F)(F)F)c(=O)on1CCC(C)C [Compound 1-974] | 100% |
| CCOC(=O)N(c1ccccc1Cc1c(C)n(C(C)c2ccccc2)oc1=O)S(=O)(=O)C(F)(F)F (stereo not drawn) [Compound 1-626] | 90% |

Tested on: Scirpus juncoides
Assay: as above
Format: in vivo
Details: 120 g/10a active ingredient, dry weight vs untreated area, 14 days after treatment
Outline: as §1

| SMILES | Herbicidal rate (%) Scirpus juncoides |
| --- | --- |
| CCCC(C)n1oc(=O)c(Cc2ccccc2N(S(=O)(=O)C(F)(F)F)S(=O)(=O)C(F)(F)F)c1C (stereo not drawn) [Compound 1-970] | 100% |
| Cc1c(Cc2ccccc2N(S(=O)(=O)C(F)(F)F)S(=O)(=O)C(F)(F)F)c(=O)on1CCC(C)C [Compound 1-974] | 90% |
| CCOC(=O)N(c1ccccc1Cc1c(C)n(C(C)c2ccccc2)oc1=O)S(=O)(=O)C(F)(F)F (stereo not drawn) [Compound 1-626] | 90% |

Tested on: broad leaf weeds (Lindernia pyxidaria and Monochoria vaginalis)
Assay: as above
Format: in vivo
Details: Lindernia pyxidaria, 120 g/10a active ingredient, dry weight vs untreated area, 14 days after treatment
Outline: as §1

| SMILES | Herbicidal rate (%) Lindernia pyxidaria |
| --- | --- |
| CCCC(C)n1oc(=O)c(Cc2ccccc2N(S(=O)(=O)C(F)(F)F)S(=O)(=O)C(F)(F)F)c1C (stereo not drawn) [Compound 1-970] | 100% |
| Cc1c(Cc2ccccc2N(S(=O)(=O)C(F)(F)F)S(=O)(=O)C(F)(F)F)c(=O)on1CCC(C)C [Compound 1-974] | 90% |
| CCOC(=O)N(c1ccccc1Cc1c(C)n(C(C)c2ccccc2)oc1=O)S(=O)(=O)C(F)(F)F (stereo not drawn) [Compound 1-626] | 90% |

Same assay, conditions: Monochoria vaginalis, 120 g/10a active ingredient, dry weight vs untreated area, 14 days after treatment

| SMILES | Herbicidal rate (%) Monochoria vaginalis |
| --- | --- |
| CCCC(C)n1oc(=O)c(Cc2ccccc2N(S(=O)(=O)C(F)(F)F)S(=O)(=O)C(F)(F)F)c1C (stereo not drawn) [Compound 1-970] | 100% |
| Cc1c(Cc2ccccc2N(S(=O)(=O)C(F)(F)F)S(=O)(=O)C(F)(F)F)c(=O)on1CCC(C)C [Compound 1-974] | 80% |
| CCOC(=O)N(c1ccccc1Cc1c(C)n(C(C)c2ccccc2)oc1=O)S(=O)(=O)C(F)(F)F (stereo not drawn) [Compound 1-626] | 90% |

Tested on: Echinochloa crus-galli
Assay: Test Example 2: herbicidal effect test by treatment during growing period in paddy rice cultivation (seven days after seeding)
Format: in vivo
Details: 120 g/10a active ingredient, assessed 14 days after treatment, dry weight vs untreated area
Outline: (§2)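 Paddy soil in Wagner pots with compound fertilizer, puddled; 30 seeds per species sown at 0–1 cm, flooded ~3 cm, greenhouse. Seven days after seeding, water-diluted emulsions were dropped into the water at 120 g active ingredient per 10 ares. Duplicate pots; herbicidal rate from dry weight versus untreated, 14 days after treatment.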

| SMILES | Herbicidal rate (%) Echinochloa crus-galli |
| --- | --- |
| CCCC(C)n1oc(=O)c(Cc2ccccc2N(S(=O)(=O)C(F)(F)F)S(=O)(=O)C(F)(F)F)c1C (stereo not drawn) [Compound 1-970] | 100% |
| Cc1c(Cc2ccccc2N(S(=O)(=O)C(F)(F)F)S(=O)(=O)C(F)(F)F)c(=O)on1CCC(C)C [Compound 1-974] | 100% |
| CCOC(=O)N(c1ccccc1Cc1c(C)n(C(C)c2ccccc2)oc1=O)S(=O)(=O)C(F)(F)F (stereo not drawn) [Compound 1-626] | 90% |

Tested on: Scirpus juncoides
Assay: as above
Format: in vivo
Details: 120 g/10a active ingredient, assessed 14 days after treatment, dry weight vs untreated area
Outline: as §2

| SMILES | Herbicidal rate (%) Scirpus juncoides |
| --- | --- |
| CCCC(C)n1oc(=O)c(Cc2ccccc2N(S(=O)(=O)C(F)(F)F)S(=O)(=O)C(F)(F)F)c1C (stereo not drawn) [Compound 1-970] | 90% |
| Cc1c(Cc2ccccc2N(S(=O)(=O)C(F)(F)F)S(=O)(=O)C(F)(F)F)c(=O)on1CCC(C)C [Compound 1-974] | 90% |
| CCOC(=O)N(c1ccccc1Cc1c(C)n(C(C)c2ccccc2)oc1=O)S(=O)(=O)C(F)(F)F (stereo not drawn) [Compound 1-626] | 90% |

Tested on: broad leaf weeds (Lindernia pyxidaria and Monochoria vaginalis)
Assay: as above
Format: in vivo
Details: Lindernia pyxidaria, 120 g/10a active ingredient, assessed 14 days after treatment, dry weight vs untreated area
Outline: as §2

| SMILES | Herbicidal rate (%) Lindernia pyxidaria |
| --- | --- |
| CCCC(C)n1oc(=O)c(Cc2ccccc2N(S(=O)(=O)C(F)(F)F)S(=O)(=O)C(F)(F)F)c1C (stereo not drawn) [Compound 1-970] | 70% |
| Cc1c(Cc2ccccc2N(S(=O)(=O)C(F)(F)F)S(=O)(=O)C(F)(F)F)c(=O)on1CCC(C)C [Compound 1-974] | 90% |
| CCOC(=O)N(c1ccccc1Cc1c(C)n(C(C)c2ccccc2)oc1=O)S(=O)(=O)C(F)(F)F (stereo not drawn) [Compound 1-626] | 90% |

Same assay, conditions: Monochoria vaginalis, 120 g/10a active ingredient, assessed 14 days after treatment, dry weight vs untreated area

| SMILES | Herbicidal rate (%) Monochoria vaginalis |
| --- | --- |
| CCCC(C)n1oc(=O)c(Cc2ccccc2N(S(=O)(=O)C(F)(F)F)S(=O)(=O)C(F)(F)F)c1C (stereo not drawn) [Compound 1-970] | 90% |
| Cc1c(Cc2ccccc2N(S(=O)(=O)C(F)(F)F)S(=O)(=O)C(F)(F)F)c(=O)on1CCC(C)C [Compound 1-974] | 90% |
| CCOC(=O)N(c1ccccc1Cc1c(C)n(C(C)c2ccccc2)oc1=O)S(=O)(=O)C(F)(F)F (stereo not drawn) [Compound 1-626] | 90% |

Tested on: Amaranthus viridis
Assay: Test Example 3: herbicidal effect test by treatment of dry field farming soil (one day after seeding)
Format: in vivo
Details: 120 g/10a active ingredient, evaluated 14 days after treatment
Outline: (§3)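 Pre-emergence soil treatment: alluvial dry-field soil, 20 seeds per species mixed into top 1 cm, emulsion diluted in water sprayed one day after seeding at 100 L per 10 ares (120 g active ingredient per 10 ares). Duplicate pots; herbicidal rate (%) from dry weight vs untreated at 14 days.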

| SMILES | herbicidal rate, Amaranthus viridis |
| --- | --- |
| CCCC(C)n1oc(=O)c(Cc2ccccc2N(S(=O)(=O)C(F)(F)F)S(=O)(=O)C(F)(F)F)c1C (stereo not drawn) [Compound 1-970] | 60% |
| Cc1c(Cc2ccccc2N(S(=O)(=O)C(F)(F)F)S(=O)(=O)C(F)(F)F)c(=O)on1CCC(C)C [Compound 1-974] | 100% |
| CCOC(=O)N(c1ccccc1Cc1c(C)n(C(C)c2ccccc2)oc1=O)S(=O)(=O)C(F)(F)F (stereo not drawn) [Compound 1-626] | 90% |

Tested on: Chenopodium album
Assay: as above
Format: in vivo
Details: 120 g/10a active ingredient, evaluated 14 days after treatment
Outline: as §3

| SMILES | herbicidal rate, Chenopodium album |
| --- | --- |
| CCCC(C)n1oc(=O)c(Cc2ccccc2N(S(=O)(=O)C(F)(F)F)S(=O)(=O)C(F)(F)F)c1C (stereo not drawn) [Compound 1-970] | 40% |
| Cc1c(Cc2ccccc2N(S(=O)(=O)C(F)(F)F)S(=O)(=O)C(F)(F)F)c(=O)on1CCC(C)C [Compound 1-974] | 100% |
| CCOC(=O)N(c1ccccc1Cc1c(C)n(C(C)c2ccccc2)oc1=O)S(=O)(=O)C(F)(F)F (stereo not drawn) [Compound 1-626] | 90% |

Tested on: Echinochloa crus-galli
Assay: as above
Format: in vivo
Details: 120 g/10a active ingredient, evaluated 14 days after treatment
Outline: as §3

| SMILES | herbicidal rate, Echinochloa crus-galli |
| --- | --- |
| CCCC(C)n1oc(=O)c(Cc2ccccc2N(S(=O)(=O)C(F)(F)F)S(=O)(=O)C(F)(F)F)c1C (stereo not drawn) [Compound 1-970] | 90% |
| Cc1c(Cc2ccccc2N(S(=O)(=O)C(F)(F)F)S(=O)(=O)C(F)(F)F)c(=O)on1CCC(C)C [Compound 1-974] | 90% |
| CCOC(=O)N(c1ccccc1Cc1c(C)n(C(C)c2ccccc2)oc1=O)S(=O)(=O)C(F)(F)F (stereo not drawn) [Compound 1-626] | 90% |

Tested on: southern crabgrass
Assay: as above
Format: in vivo
Details: 120 g/10a active ingredient, evaluated 14 days after treatment
Outline: as §3

| SMILES | herbicidal rate, southern crabgrass |
| --- | --- |
| CCCC(C)n1oc(=O)c(Cc2ccccc2N(S(=O)(=O)C(F)(F)F)S(=O)(=O)C(F)(F)F)c1C (stereo not drawn) [Compound 1-970] | 90% |
| Cc1c(Cc2ccccc2N(S(=O)(=O)C(F)(F)F)S(=O)(=O)C(F)(F)F)c(=O)on1CCC(C)C [Compound 1-974] | 90% |
| CCOC(=O)N(c1ccccc1Cc1c(C)n(C(C)c2ccccc2)oc1=O)S(=O)(=O)C(F)(F)F (stereo not drawn) [Compound 1-626] | 90% |

Tested on: Amaranthus viridis
Assay: Test Example 4: herbicidal effect test by treatment of leave and stem in dry field farming (seven days after seeding)
Format: in vivo
Details: 120 g/10a active ingredient; emulsion sprayed seven days after seeding; evaluated 14 days after treatment
Outline: (§4)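 Weeds were seeded at 20 seeds per species into the top 1 cm of alluvial upland soil in pots, then sprayed 7 days after seeding with water-diluted emulsifiable concentrate at 100 L/10 a, giving 120 g active ingredient/10 a. Duplicate pots; herbicidal rate (%) was 14 days post-treatment, from dry weight versus untreated.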

| SMILES | herbicidal effect (herbicidal rate), Amaranthus viridis |
| --- | --- |
| CCCC(C)n1oc(=O)c(Cc2ccccc2N(S(=O)(=O)C(F)(F)F)S(=O)(=O)C(F)(F)F)c1C (stereo not drawn) [Compound 1-970] | 60% |
| Cc1c(Cc2ccccc2N(S(=O)(=O)C(F)(F)F)S(=O)(=O)C(F)(F)F)c(=O)on1CCC(C)C [Compound 1-974] | 40% |
| CCOC(=O)N(c1ccccc1Cc1c(C)n(C(C)c2ccccc2)oc1=O)S(=O)(=O)C(F)(F)F (stereo not drawn) [Compound 1-626] | 40% |

Tested on: Chenopodium album
Assay: as above
Format: in vivo
Details: 120 g/10a active ingredient; emulsion sprayed seven days after seeding; evaluated 14 days after treatment
Outline: as §4

| SMILES | herbicidal effect (herbicidal rate), Chenopodium album |
| --- | --- |
| CCCC(C)n1oc(=O)c(Cc2ccccc2N(S(=O)(=O)C(F)(F)F)S(=O)(=O)C(F)(F)F)c1C (stereo not drawn) [Compound 1-970] | 40% |
| Cc1c(Cc2ccccc2N(S(=O)(=O)C(F)(F)F)S(=O)(=O)C(F)(F)F)c(=O)on1CCC(C)C [Compound 1-974] | 40% |
| CCOC(=O)N(c1ccccc1Cc1c(C)n(C(C)c2ccccc2)oc1=O)S(=O)(=O)C(F)(F)F (stereo not drawn) [Compound 1-626] | 40% |

Tested on: Echinochloa crus-galli
Assay: as above
Format: in vivo
Details: 120 g/10a active ingredient; emulsion sprayed seven days after seeding; evaluated 14 days after treatment
Outline: as §4

| SMILES | herbicidal effect (herbicidal rate), Echinochloa crus-galli |
| --- | --- |
| CCCC(C)n1oc(=O)c(Cc2ccccc2N(S(=O)(=O)C(F)(F)F)S(=O)(=O)C(F)(F)F)c1C (stereo not drawn) [Compound 1-970] | 90% |
| Cc1c(Cc2ccccc2N(S(=O)(=O)C(F)(F)F)S(=O)(=O)C(F)(F)F)c(=O)on1CCC(C)C [Compound 1-974] | 90% |
| CCOC(=O)N(c1ccccc1Cc1c(C)n(C(C)c2ccccc2)oc1=O)S(=O)(=O)C(F)(F)F (stereo not drawn) [Compound 1-626] | 90% |

Tested on: southern crabgrass
Assay: as above
Format: in vivo
Details: 120 g/10a active ingredient; emulsion sprayed seven days after seeding; evaluated 14 days after treatment
Outline: as §4

| SMILES | herbicidal effect (herbicidal rate), southern crabgrass |
| --- | --- |
| CCCC(C)n1oc(=O)c(Cc2ccccc2N(S(=O)(=O)C(F)(F)F)S(=O)(=O)C(F)(F)F)c1C (stereo not drawn) [Compound 1-970] | 70% |
| Cc1c(Cc2ccccc2N(S(=O)(=O)C(F)(F)F)S(=O)(=O)C(F)(F)F)c(=O)on1CCC(C)C [Compound 1-974] | 50% |
| CCOC(=O)N(c1ccccc1Cc1c(C)n(C(C)c2ccccc2)oc1=O)S(=O)(=O)C(F)(F)F (stereo not drawn) [Compound 1-626] | 90% |
